Laboratory results reported in patent US9387246B2, “Treatment methods for rheumatoid arthritis” (priority 2013, dated 2016).
Blank lines part the entries; values can stand above or below the molecule they belong to.

Key:
YKL-40 = conditions: literature 1990-2012, ACR abstracts 2006-2013; cited from earlier work
TNFR1 = system: TNFR1; parameters: key: Y: biomarkers that are known to be positively affected by a treatment method (i.e., biomarkers that are known to have a favorable response to a treatment method); N: biomarkers that are not known to be positively affected by a treatment method (i.e., biomarkers that are known to have an unfavorable response to a treatment method); biomarkers that are known to be positively affected by a ORENCIA, the brand name of Atabacept; conditions: literature 1990-2012, ACR abstracts 2006-2013; cited from earlier work
Resistin = conditions: literature 1990-2012, ACR abstracts 2006-2013; cited from earlier work
IL-6 = conditions: literature 1990-2012, ACR abstracts 2006-2013; cited from earlier work
MMP-3 = conditions: literature 1990-2012, ACR abstracts 2006-2013; cited from earlier work
CRP = conditions: literature 1990-2012, ACR abstracts 2006-2013; cited from earlier work
SAA = conditions: literature 1990-2012, ACR abstracts 2006-2013; cited from earlier work
Leptin = conditions: literature; Leptin usable as biomarker only in patients with 15% or less body fat; cited from earlier work
VEGF-A = conditions: literature 1990-2012, ACR abstracts 2006-2013; cited from earlier work
[1] = system: Rheumatoid arthritis patients; assay type: in vivo, human; conditions: for Treatment effectiveness (reason for discontinuation / earlier trial): patient 16, January 2014
From the text: A treatment method administered to a patient may be a combination of one or more treatment methods.

VCAM-1 = conditions: literature 1990-2012, ACR abstracts 2006-2013; cited from earlier work
MMP-1 = conditions: literature 1990-2012, ACR abstracts 2006-2013; cited from earlier work
[2] = system: Rheumatoid arthritis patients; assay: Change in VECTRA DA Score after treatment, longer duration (Example 3); assay type: in vivo, human
Procedure: Sixteen rheumatoid arthritis patients were selected for treatment by treatment methods that were selected using the algorithm disclosed herein. Some patients were the same as the patients discussed under Example 2. Example 3, however, tracks patients' responses to treatment for a longer duration and uses VECTRA DA Score to determine effectiveness of the treatment.
VECTRA® DA test was conducted for each patient to determine serum levels of the all the biomarkers and VECTRA DA Score in each patient before treatment. The collection of patients closely resembles the random patient population available nationwide as shown by a comparison of the distribution of VECTRA DA Scores in FIG. 6, as noted under Example 2.
The patients were treated with the selected treatment methods and the post-treatment biomarker levels and VECTRA DA Score were determined by VECTRA® DA test. The change is VECTRA DA Score was determined to determine the change in disease activity and effectiveness of the selected treatment method.
The treatment method (one method or a combination of methods) was determined to be effective when the post-treatment disease activity was lower than the pre-treatment disease activity in the patient: when VECTRA DA Score was lower than the pre-treatment VECTRA DA Score. Specifically, the treatment method was determined to be effective when the post-treatment disease activity was at least 20% lower than the pre-treatment disease activity, or when the VECTRA DA Score is decreased to a lower disease activity level after the treatment (i.e., from high to moderate, or high to low, or moderate to low).

[3] = system: Rheumatoid arthritis patients; assay: Treatment outcome (effectiveness, clinical course) of treatment methods (Example 2); assay type: in vivo, human
Procedure: (§1) The patients were treated with the selected treatment methods for at least five months and the post-treatment biomarker levels and VECTRA DA Score were determined by VECTRA® DA test along with CRP level and ESR. The change is VECTRA DA Score, CRP level and ESR was determined to determine the change in disease activity and effectiveness of the selected treatment method.

[4] = system: Rheumatoid arthritis patients; assay: VECTRA DA test: serum levels of biomarkers, % elevation over control (InFoRM study); assay type: in vivo, human
From the text: (§2) VECTRA® DA test is a multi-biomarker disease activity (MBDA) blood test sold by Crescendo Bioscience. The test provides a quantitative assessment of rheumatoid arthritis disease activity in patients by using twelve protein biomarkers—Vascular Cell Adhesion Molecule 1 (VCAM-1), Epidermal Growth Factor (EGF), Vascular Endothelial Growth Factor A (VEGF-A), Interleukin-6 (IL-6), Tumor Necrosis Factor Receptor Type 1 (TNFR1), Matrix Metalloproteinase-1 (MMP-1), Matrix Metalloproteinase-3 (MMP-3), YKL-40, Leptin, Resistin, Serum Amyloid A (SAA), and C-Reactive Protein (CRP). The twelve biomarkers in VECTRA® DA test are relevant to key aspects of the pathophysiology of RA. Li et al., Curr. Med. Res. & Opin. 29(1): 85-92 (2013). The test measures the concentrations of the biomarkers and provides the concentrations and percentile (RA percentile) value for each biomarker.
The VECTRA DA MBDA test uses Meso Scale Discovery (MSD, Gaithersburg, Md., USA) sandwich immunoassay electrochemiluminescent technology to measure biomarker levels. Eastman et al., J. of Pharmaceutical and Biomedical Analysis 70: 415-424 (2012). In the immunoassay, capture antibodies are spotted on carbon electrodes in a planar array and detection antibodies are labeled with an electrochemiluminescent ruthenium reporter. Id. Upon electrical stimulation, light is produced from reporter molecules bound to the electrode to determine biomarker concentration.

[5] = system: Rheumatoid arthritis patients; assay: Change in VECTRA DA Score after treatment (Example 2); assay type: in vivo, human; conditions: Patient 10; treatment December 2012-June 2013; score May 2013
From the text: as §2, with “biomarker. […]” for “biomarker.”
as §1

[6] = Patient 6, outcome not reflected by change in any of the three disease markers, earlier treatments not algorithm-selected
[7] = Patient 10, MTX (November 2011) and ORENCIA (August-December 2012) not algorithm-selected, HUMIRA December 2012-June 2013, based on VECTRA DA Score

Molecule: O=C(O)c1cc(/N=N/c2ccc(S(=O)(=O)Nc3ccccn3)cc2)ccc1O [S, Sulfasalazine]
YKL-40 positively affected by treatment method (YKL-40): N
TNFR1 positively affected by treatment method (TNFR1): Y
Resistin positively affected by treatment method (Resistin): N
IL-6 positively affected by treatment method (IL-6): Y
MMP-3 positively affected by treatment method (MMP-3): Y
CRP positively affected by treatment method (CRP): Y
SAA positively affected by treatment method (SAA): Y
Leptin positively affected by treatment method (Leptin): N
VEGF-A positively affected by treatment method (VEGF-A): Y

WBC count relative to normal (reason for discontinuation) ([1]; in vivo): due to below
Molecule: Cc1oncc1C(=O)Nc1ccc(C(F)(F)F)cc1 [ARA, Leflunomide]
TNFR1 positively affected by treatment method (TNFR1): Y
Patient could tolerate the drug in the past ([1]; in vivo): Patient could not
Toxicity for which the treatment was discontinued ([1]; in vivo): to bone marrow
VCAM-1 positively affected by treatment method (VCAM-1): Y
MMP-1 positively affected by treatment method (MMP-1): Y
Arthritis activity class of VECTRA DA Score ([2]; Patient 6, March 2012): high (a VECTRA DA Score of >44 reflects high disease activity)
VECTRA DA Score ([2]; Patient 6, March 2012): 74
Resistin positively affected by treatment method (Resistin): N
IL-6 positively affected by treatment method (IL-6): Y
MMP-3 positively affected by treatment method (MMP-3): Y
SAA positively affected by treatment method (SAA): Y
Treatment Outcome [3, 6]: (after failing
CRP elevated level ([4]; Patient 6, March 2012): 93%
IL-6 elevated level ([4]; Patient 6, March 2012): 98%
Leptin elevated level ([4]; Patient 6, March 2012): 90%
MMP-1 elevated level ([4]; Patient 6, March 2012): 40%
MMP-3 elevated level ([4]; Patient 6, March 2012): 91%
Resistin elevated level ([4]; Patient 6, March 2012): 63%
SAA elevated level ([4]; Patient 6, March 2012): 97%
TNF-R1 elevated level ([4]; Patient 6, March 2012): 73%
VCAM-1 elevated level ([4]; Patient 6, March 2012): 85%
VEGF-A elevated level ([4]; Patient 6, March 2012): 84%
YKL-40 elevated level ([4]; Patient 6, March 2012): 41%

Molecule: Rituximab
YKL-40 positively affected by treatment method (YKL-40): N
VCAM-1 positively affected by treatment method (VCAM-1): N
MMP-1 positively affected by treatment method (MMP-1): N
Resistin positively affected by treatment method (Resistin): N
IL-6 positively affected by treatment method (IL-6): Y
MMP-3 positively affected by treatment method (MMP-3): N
CRP positively affected by treatment method (CRP): Y
SAA positively affected by treatment method (SAA): N
Leptin positively affected by treatment method (Leptin): N

Molecule: CN(Cc1cnc2nc(N)nc(N)c2n1)c1ccc(C(=O)N[C@@H](CCC(=O)O)C(=O)O)cc1 [MTX, Methotrexate]
YKL-40 positively affected by treatment method (YKL-40): N
TNFR1 positively affected by treatment method (TNFR1): N
Adverse event for which dose was reduced to 10 mg/week ([1]; human, in vivo): hair loss, April 2014
Treatment effectiveness (reason for discontinuation / earlier trial) [1]: without success
VCAM-1 positively affected by treatment method (VCAM-1): N
MMP-1 positively affected by treatment method (MMP-1): N
Arthritis activity class of VECTRA DA Score ([2]; Patient 5, August 2012): high (a VECTRA DA Score of >44 reflects high disease activity)
VECTRA DA Score increased by ([2]; Patient 5, August 2012 since March 2012 (5 months treatment only)): by 7 since
Arthritis activity class of VECTRA DA Score ([2]; Patient 10, April 2012): (moderate) (a VECTRA DA Score of >29 and ≦44 reflects moderate disease activity)
VECTRA DA Score ([2]; Patient 10, April 2012, Methotrexate 10 mg/week): Score: 33
Resistin positively affected by treatment method (Resistin): N
IL-6 positively affected by treatment method (IL-6): Y
MMP-3 positively affected by treatment method (MMP-3): Y
CRP positively affected by treatment method (CRP): Y
SAA positively affected by treatment method (SAA): Y
Treatment Outcome ([3]; Patient 5, MTX alone from March 2012 not algorithm-selected, MTX and CIMZIA October 2012-June 2013, based on Sedimentation Rate and CRP Level): Not effective
Treatment Outcome ([3]; Patient 8, MTX not algorithm-selected, ORENCIA December 2012-June 2013, based on VECTRA DA score): Not effective
Treatment Outcome ([3]; Patient 9, ACTEMRA from May 2012 not algorithm-selected, MTX added October 2012, based on ESR and CRP level): Effective,
Treatment Outcome [3, 7]: Not effective
Leptin positively affected by treatment method (Leptin): N
CRP elevated level ([4]; Patient 5, August 2012): 67%
IL-6 elevated level ([4]; Patient 5, August 2012): 79%
Leptin elevated level ([4]; Patient 5, August 2012): 97%
MMP-1 elevated level ([4]; Patient 5, August 2012): 79%
MMP-3 elevated level ([4]; Patient 5, August 2012): 95%
Resistin elevated level ([4]; Patient 5, August 2012): 82%
SAA elevated level ([4]; Patient 5, August 2012): 92%
TNF-R1 elevated level ([4]; Patient 5, August 2012): 79%
VCAM-1 elevated level ([4]; Patient 5, August 2012): 97%
VEGF-A elevated level ([4]; Patient 5, August 2012): 48%
YKL-40 elevated level ([4]; Patient 5, August 2012): 94%
SAA elevated level ([4]; Patient 10, April 2012): 65%
VEGF-A elevated level ([4]; Patient 10, April 2012): 59%
YKL-40 elevated level ([4]; Patient 10, April 2012): 72%
VEGF-A positively affected by treatment method (VEGF-A): Y

Molecule: CCN(CCO)CCCC(C)Nc1ccnc2cc(Cl)ccc12 (centres unmarked) [P, Hydroxychloroquine]
YKL-40 positively affected by treatment method (YKL-40): N
TNFR1 positively affected by treatment method (TNFR1): N
VCAM-1 positively affected by treatment method (VCAM-1): N
MMP-1 positively affected by treatment method (MMP-1): N
Resistin positively affected by treatment method (Resistin): N
IL-6 positively affected by treatment method (IL-6): Y
MMP-3 positively affected by treatment method (MMP-3): N
CRP positively affected by treatment method (CRP): Y
SAA positively affected by treatment method (SAA): Y
VEGF-A positively affected by treatment method (VEGF-A): N

Molecule: Cn1cnc([N+](=O)[O-])c1Sc1ncnc2nc[nH]c12 [Azathioprine (AZA), Azathioprine]
Treatment effectiveness (reason for discontinuation / earlier trial) [1]: to inefficacy
Treatment Outcome [3, 6]: (after failing
Treatment Outcome ([3]; Patient 16, AZA from March 2012, triple therapy with CIMZIA from May 2012, based on VECTRA DA score): Not effective

Molecule: C[C@@H]1CCN(C(=O)CC#N)C[C@@H]1N(C)c1ncnc2[nH]ccc12 [TOFAC, Tofacitinib]
Tapering of oral steroid, Prednisone ([1]; patient 16, XELJANZ 5 mg twice a day added March 2014): XELJANZ allowed
MMP-1 positively affected by treatment method (MMP-1): Y
IL-6 positively affected by treatment method (IL-6): Y
MMP-3 positively affected by treatment method (MMP-3): Y

Molecule: Adalimumab [HUMIRA (TNF)]
VECTRA DA Score - Decreased by [5]: Decreased by 22
Treatment Outcome [3, 7]: Effective,

B1: Certolizumab pegol (antibody, chains of the INN, looked up, V domains shown)
VH: EVQLVESGGGLVQPGGSLRLSCAASGYVFTDYGMNWVRQAPGKGLEWMGWINTYIGEPIYADSVKGRFTFSLDTSKSTAYLQMNSLRAEDTAVYYCARGYRSYAMDYWGQGTLVTVSS
VL: DIQMTQSPSSLSASVGDRVTITCKASQNVGTNVAWYQQKPGKAPKALIYSASFLYSGVPYRFSGSGSGTDFTLTISSLQPEDFATYYCQQYNIYPLTFGQGTKVEIK
modifications: Fab' PEG
Treatment Outcome [3, 6]: (after failing

B2: TNF (CIMZIA) (antibody, chains of the INN, looked up, V domains shown)
VH: EVQLVESGGGLVQPGGSLRLSCAASGYVFTDYGMNWVRQAPGKGLEWMGWINTYIGEPIYADSVKGRFTFSLDTSKSTAYLQMNSLRAEDTAVYYCARGYRSYAMDYWGQGTLVTVSS
VL: DIQMTQSPSSLSASVGDRVTITCKASQNVGTNVAWYQQKPGKAPKALIYSASFLYSGVPYRFSGSGSGTDFTLTISSLQPEDFATYYCQQYNIYPLTFGQGTKVEIK
modifications: Fab' PEG
Treatment effectiveness (reason for discontinuation / earlier trial) [1]: without success
